Laboratory results published in US20240207244A1, “COMPOSITIONS AND METHODS FOR TREATING NEURODEGENERATIVE DISORDERS THROUGH INHIBITION OF CD44 AND FERM PROTEIN INTERACTION” (Arizona Board of Regents on Behalf of the University of …, priority 2021, published 2024).

Columns and labels:
Moesin [1] = target: T1, Moesin (Homo sapiens, UniProt P26038); assay: Biophysical binding of P1 analogs (SAR); conditions: first round of analogs
Excerpt: Indeed, such experiments defined the known structural interactions between CD44, and Msn based on a co-crystal structure of this protein-protein complex. It was proposed that the binding of Msn through CD44 could be mimicked by small molecules. By performing in silico docking on the CD44 binding pocket, using a virtual screen of 50,000 compounds and 200,000 pharmacophores and guided by FERM domain-peptide co-crystal structures, such experiments identified druggable pockets in these FERM proteins. Top scoring compounds were tested for binding to recombinant purified FERM proteins using several biophysical methods.
• Before engaging in custom synthesis, we searched for additional commercially available analogs to expand SAR at the east part of the P1, keeping the piperidinemethyl-heterocycle constant (FIG. 7, red oval). A total of 4.2M compounds were searched for a match to P1 features. “Drug-like” ZINC database 2019 and ChemBridge catalogue provided P1 analogues commercially available. 18 compounds matching the search criteria were selected and tested for biophysical binding. […] Our next SAR analogs will thus include structural modifications that will explore hydrogen bond patterns and the size of the fragments in the 5-hydroxypiperonyl/pyrazolopyridine area. […]

Moesin [2] = target: T1, Moesin; assay: Saturation transfer difference NMR (STD-NMR) binding to Moesin
Excerpt: Following in silico docking, we (the inventors) triage binding using saturation transfer difference NMR (STD-NMR) as is routinely done in our laboratory to define binding of small molecules (see, Mollasalehi, N. et al. ACS Chem Biol, doi: 10.1021/acschembio.0c00494 (2020): Francois-Moutal, L. et al. ACS Chem Biol 14, 2006-2013, doi: 10.1021/acschembio.9b00481 (2019): François-Moutal, L. et al. ACS Chem Biol 13, 3000-3010, doi:10.1021/acschembio.8b00745 (2018)) (FIG. 2A). After testing the ability of all compounds to bind to Moesin. […] We then measured the affinity of binding using micro-scale thermophoresis (MST), a technique to quantify biomolecular interactions, based on thermophoresis. Concentration-dependent measurements were done using MST to determine dissociation constant for binding of P1 to Moesin and we obtained Apparent Kd=Xxx±xxx μM. Data are presented as mean±SD (n=3) (FIG. 3).

Moesin [3] = target: T1, Moesin; assay: Cellular Thermal Shift Assay (CETSA); format: cell-based
Excerpt: CETSA: To further ascertain the binding between Moesin and small compounds, we are currently developing Cellular Thermal Shift Assay (CETSA), a convenient cell-based test for identifying target engagement between ligands (i.e. a drug candidate) and their protein targets (PMID:XXX). CETSA has been previously used to measure the binding of small molecules to Ezrin (another FERM protein similar to Moesin) in a cellular environment (PMID: 33003361). The assay consists of the measurement of the shift in thermal stability of the target protein (Moesin) in the presence of the small molecules. The apparent melting temperature (Tm), observed in the presence or the absence of a bioactive compound, can be evaluated by measuring the persistence of soluble protein at different temperatures. If the compound binds to the protein of interest, a shift in melting temperature is observed.

HMC3 cells = assay: Flow cytometry of HLA-DR expression in IFNγ-stimulated HMC3 microglial cells; format: cell-based, Human; conditions: HMC3 cells pre-incubated 24 h, then stimulated with IFNγ
Excerpt: Once we define the binding using purified protein, we validate the binding in cells. We have done this through imaging by using the Lumio™ system for site-specific fluorescent labeling of recombinant proteins in living cells, flow cytometry assays, and cellular thermal shift assay (CETSA). • Lumio™ System Imaging: This recently developed method relies on FLASH (Fluorescein Arsenical Hairpin) technology, which uses biarsenical labeling reagents to bind and detect proteins containing a tetracysteine (TC) motif (Griffin et al., 1998). The biarsenical labeling reagents are nonfluorescent until they bind the TC motif at which time, they become highly fluorescent. Both, a genetically engineered CD44 containing a TC motif, and mCherry-Moesin, were co-transfected into Immortalized Human Microglia (SV40 cell line) (FIG. 5). Ongoing work is being done to optimize this protocol and adapt it for use with small compounds. • Flow Cytometry: Current studies of microglial activation are widely performed to study neuroinflammation and test small compounds and their anti-inflammatory properties. IFNγ was be used to activate macrophage response in HMC3 cells (Human microglial cell line, PMID: 30200996), while flow cytometry was employed in combination with small compounds. […] Reactive microglia expressing the histocompatibility glycoprotein HLA-DR were detected using flow cytometry. […]

GST = GST (Schistosoma japonicum, UniProt P08515); assay: STD-NMR binding to control GST; conditions: control protein
Sequence of GST (P08515 2-218 limits assumed): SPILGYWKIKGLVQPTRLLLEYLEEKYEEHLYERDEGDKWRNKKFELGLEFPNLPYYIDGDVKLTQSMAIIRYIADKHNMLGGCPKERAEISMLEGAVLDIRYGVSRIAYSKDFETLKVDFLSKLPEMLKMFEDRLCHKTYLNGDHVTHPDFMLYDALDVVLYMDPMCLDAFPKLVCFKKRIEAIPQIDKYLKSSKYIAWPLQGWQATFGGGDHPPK

T1 sequence (P26038 whole entry, the tested form may be a part): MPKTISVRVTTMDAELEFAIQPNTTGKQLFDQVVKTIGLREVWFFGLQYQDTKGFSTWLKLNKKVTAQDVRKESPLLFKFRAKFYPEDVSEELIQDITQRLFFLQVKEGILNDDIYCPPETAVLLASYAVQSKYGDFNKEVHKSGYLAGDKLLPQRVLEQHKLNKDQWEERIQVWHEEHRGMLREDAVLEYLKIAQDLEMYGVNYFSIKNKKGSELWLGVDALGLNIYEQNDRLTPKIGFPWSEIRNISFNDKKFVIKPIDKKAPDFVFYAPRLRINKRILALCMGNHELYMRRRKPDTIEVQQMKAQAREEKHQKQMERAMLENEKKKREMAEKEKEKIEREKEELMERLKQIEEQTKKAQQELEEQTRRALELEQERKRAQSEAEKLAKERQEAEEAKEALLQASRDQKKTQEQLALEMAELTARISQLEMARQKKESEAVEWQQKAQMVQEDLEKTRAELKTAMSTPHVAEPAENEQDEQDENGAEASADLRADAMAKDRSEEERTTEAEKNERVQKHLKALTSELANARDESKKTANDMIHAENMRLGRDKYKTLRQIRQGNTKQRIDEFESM

Row | Compound | binding relative to P1 (Moesin [1]) | binding to Moesin (Moesin [2]) | shift in melting temperature of Moesin (Moesin [3]) | HLA-DR level (HMC3 cells) | binding to the control GST (GST)
1 | CC(Oc1ccc2c(c1)OCO2)c1nc(CC2CCN(C)CC2)no1 (centres unmarked) [Plsar3] | improved binding |  |  |  | 
2 | CN1CCC(Cc2noc(CCc3nc4cccnc4n3C)n2)CC1 [P1] |  | binding specifically | discrete shift | reduced | did not bind
